≈ marks a conversion by molar mass, not a printed value.
How the values were obtained:
Format in all cases: functional
Haemophilus influenzae [1] = assay: Antibacterial activity against genetically beta-lactamase-negative ampicillin-susceptible Haemophilus influenzae type b without amino acid substitutions in ftsI gene and bla gene assessed as susceptibility rate by broth microdilution method
Haemophilus influenzae [2] = assay: Antibacterial activity against genetically beta-lactamase-negative ampicillin-resistant Haemophilus influenzae type b with an amino acid substitution in variable mutated locus Asn-526 or Arg-517 of ftsI gene by broth microdilution method
Haemophilus influenzae [3] = assay: Antibacterial activity against genetically beta-lactamase-negative ampicillin-resistant Haemophilus influenzae type b with an amino acid substitution in variable mutated locus Asn-526 or Arg-517 of ftsI gene assessed as resistance rate by broth microdilution method
Haemophilus influenzae [4] = assay: Antibacterial activity against genetically beta-lactamase-negative ampicillin-resistant Haemophilus influenzae type b with an amino acid substitution in variable mutated locus Asn-526 or Arg-517 of ftsI gene assessed as susceptibility rate by broth microdilution method
Haemophilus influenzae [5] = assay: Antibacterial activity against genetically beta-lactamase-negative ampicillin-susceptible Haemophilus influenzae type b without amino acid substitutions in ftsI gene and bla gene by broth microdilution method
Haemophilus influenzae [6] = assay: Antibacterial activity against genetically beta-lactamase-negative ampicillin-resistant Haemophilus influenzae type b with an amino acid substitution in highly mutated locus Ser-385 of ftsI gene by broth microdilution method
Haemophilus influenzae [7] = assay: Antibacterial activity against genetically beta-lactamase-negative ampicillin-susceptible Haemophilus influenzae type b without amino acid substitutions in ftsI gene and bla gene assessed as resistance rate by broth microdilution method
Haemophilus influenzae [8] = assay: Antibacterial activity against genetically beta-lactamase-negative ampicillin-resistant Haemophilus influenzae type b with an amino acid substitution in highly mutated locus Ser-385 of ftsI gene assessed as susceptibility rate by broth microdilution method
Haemophilus influenzae [9] = assay: Antibacterial activity against genetically beta-lactamase-negative ampicillin-resistant Haemophilus influenzae type b with an amino acid substitution in highly mutated locus Ser-385 of ftsI gene assessed as resistance rate by broth microdilution method
Haemophilus influenzae [10] = assay: Antibacterial activity against genetically beta-lactamase-positive amoxicillin-clavulanate-resistant Haemophilus influenzae type b with an amino acid substitution in highly mutated locus Ser-385 of ftsI gene assessed as resistance rate by broth microdilution method
Haemophilus influenzae [11] = assay: Antibacterial activity against genetically beta-lactamase-positive amoxicillin-clavulanate-resistant Haemophilus influenzae type b with an amino acid substitution in highly mutated locus Ser-385 of ftsI gene by broth microdilution method
Haemophilus influenzae [12] = assay: Antibacterial activity against genetically beta-lactamase-positive amoxicillin-clavulanate-resistant Haemophilus influenzae type b with an amino acid substitution in variable mutated locus Asn-526 or Arg-517 of ftsI gene by broth microdilution method
Haemophilus influenzae [13] = assay: Antibacterial activity against beta-lactamase-negative ampicillin-resistant Haemophilus influenzae by Etest
Haemophilus influenzae [14] = assay: Antibacterial activity against genetically […] but without an amino acid substitution in ftsI gene assessed as susceptibility rate by broth microdilution method
Haemophilus influenzae [15] = assay: Antibacterial activity against beta-lactamase-negative ampicillin-resistant Haemophilus influenzae with mutation in AcrAB repressor gene […]
Haemophilus influenzae [16] = assay: Antibacterial activity against genetically beta-lactamase-positive amoxicillin-clavulanate-resistant Haemophilus influenzae type b with an amino acid substitution in variable mutated locus Asn-526 or Arg-517 of ftsI gene assessed as resistance rate by broth microdilution method
Haemophilus influenzae [17] = assay: Antibacterial activity against genetically beta-lactamase-positive amoxicillin-clavulanate-resistant Haemophilus influenzae type b with an amino acid substitution in variable mutated locus Asn-526 or Arg-517 of ftsI gene assessed as susceptibility rate by broth microdilution method
Haemophilus influenzae [18] = assay: Antibacterial activity against genetically […] but without an amino acid substitution in ftsI gene assessed as resistance rate by broth microdilution method
Haemophilus influenzae [19] = assay: Antibacterial activity against genetically […] but without an amino acid substitution in ftsI gene by broth microdilution method
Haemophilus influenzae [20] = assay: Antibacterial activity against genetically beta-lactamase-positive amoxicillin-clavulanate-resistant Haemophilus influenzae type b with an amino acid substitution in highly mutated locus Ser-385 of ftsI gene assessed as susceptibility rate by broth microdilution method

SMILES	Activity (Haemophilus influenzae [1]) [%]	MIC50 (Haemophilus influenzae [2]) [µg/mL]	MIC90 (Haemophilus influenzae [2]) [µg/mL]	Activity (Haemophilus influenzae [3]) [%]	Activity (Haemophilus influenzae [4]) [%]	MIC50 (Haemophilus influenzae [5]) [µg/mL]	MIC90 (Haemophilus influenzae [5]) [µg/mL]	MIC50 (Haemophilus influenzae [6]) [µg/mL]	MIC90 (Haemophilus influenzae [6]) [µg/mL]	Activity (Haemophilus influenzae [7]) [%]	Activity (Haemophilus influenzae [8]) [%]	Activity (Haemophilus influenzae [9]) [%]	other results
CC[C@H]1OC(=O)[C@H](C)[C@@H](O[C@H]2C[C@@](C)(OC)[C@@H](O)[C@H](C)O2)[C@H](C)[C@@H](O[C@@H]2O[C@H](C)C[C@H](N(C)C)[C@H]2O)[C@](C)(O)C[C@@H](C)CN(C)[C@H](C)[C@@H](O)[C@]1(C)O [AZITHROMYCIN]	98.8	2 (≈ 2.67 µM)	4 (≈ 5.34 µM)	4.1	95.9	2 (≈ 2.67 µM)	4 (≈ 5.34 µM)	2 (≈ 2.67 µM)	4 (≈ 5.34 µM)	1.2	97.3	2.7	–
CC[C@H]1OC(=O)[C@H](C)C(=O)[C@H](C)[C@@H](O[C@@H]2O[C@H](C)C[C@H](N(C)C)[C@H]2O)[C@](C)(OC)C[C@@H](C)C(=O)[C@H](C)[C@H]2N(CCCCn3cnc(-c4cccnc4)c3)C(=O)O[C@]12C [TELITHROMYCIN]	97.7	2 (≈ 2.46 µM)	4 (≈ 4.93 µM)	0	93.9	2 (≈ 2.46 µM)	4 (≈ 4.93 µM)	2 (≈ 2.46 µM)	4 (≈ 4.93 µM)	0	87.8	0	–
C[C@H]1COc2c(N3CCN(C)CC3)c(F)cc3c(=O)c(C(=O)O)cn1c23.C[C@H]1COc2c(N3CCN(C)CC3)c(F)cc3c(=O)c(C(=O)O)cn1c23.O [LEVOFLOXACIN]	100	≤ 0.06	≤ 0.06	0	100	≤ 0.06	≤ 0.06	≤ 0.06	≤ 0.06	0	100	0	–
CO/N=C(\C(=O)N[C@@H]1C(=O)N2C(C(=O)O)=C(COC(N)=O)CS[C@H]12)c1ccco1 [CEFUROXIME]	97.7	2 (≈ 4.71 µM)	16 (≈ 37.7 µM)	21.4	66.3	1 (≈ 2.36 µM)	2 (≈ 4.71 µM)	64 (≈ 151 µM)	128 (≈ 302 µM)	1.2	1.4	94.6	–
COCC1=C(C(=O)O)N2C(=O)[C@@H](NC(=O)/C(=N\OC)c3csc(N)n3)[C@H]2SC1 [CEFPODOXIME]	100	0.25 (≈ 0.585 µM)	2 (≈ 4.68 µM)	9.2	90.8	0.12 (≈ 0.281 µM)	0.12 (≈ 0.281 µM)	8 (≈ 18.7 µM)	16 (≈ 37.4 µM)	0	9.1	91.9	–
C[C@@H](O)[C@H]1C(=O)N2C(C(=O)O)=C(S[C@@H]3CN[C@H](C(=O)N(C)C)C3)[C@H](C)[C@H]12 [MEROPENEM]	100	0.12 (≈ 0.313 µM)	0.25 (≈ 0.652 µM)	0	100	≤ 0.06	≤ 0.06	0.25 (≈ 0.652 µM)	0.5 (≈ 1.3 µM)	0	90.5	9.5	–
CC[C@H]1OC(=O)[C@H](C)[C@@H](O[C@H]2C[C@@](C)(OC)[C@@H](O)[C@H](C)O2)[C@H](C)[C@@H](O[C@@H]2O[C@H](C)C[C@H](N(C)C)[C@H]2O)[C@](C)(OC)C[C@@H](C)C(=O)[C@H](C)[C@@H](O)[C@]1(C)O [CLARITHROMYCIN]	79.3	8 (≈ 10.7 µM)	16 (≈ 21.4 µM)	2	75.5	8 (≈ 10.7 µM)	16 (≈ 21.4 µM)	8 (≈ 10.7 µM)	16 (≈ 21.4 µM)	3.5	60.8	0	–
CO/N=C(\C(=O)N[C@@H]1C(=O)N2C(C(=O)OCOC(=O)C(C)(C)C)=C(/C=C\c3scnc3C)CS[C@H]12)c1csc(N)n1 [CEFDITOREN PIVOXIL]	–	≤ 0.06	0.12 (≈ 0.193 µM)	–	–	≤ 0.06	≤ 0.06	0.25 (≈ 0.403 µM)	0.5 (≈ 0.805 µM)	–	–	–	–
CC1(C)S[C@@H]2[C@H](NC(=O)[C@H](N)c3ccccc3)C(=O)N2[C@H]1C(=O)O [AMPICILLIN]	100	0.5 (≈ 1.43 µM)	2 (≈ 5.72 µM)	8.1	68.4	0.5 (≈ 1.43 µM)	0.5 (≈ 1.43 µM)	4 (≈ 11.4 µM)	16 (≈ 45.8 µM)	0	9.5	71.6	Activity (Haemophilus influenzae [10]): 100%; MIC50 (Haemophilus influenzae [11]): > 128 µg/mL; MIC90 (Haemophilus influenzae [11]): > 128 µg/mL; MIC50 (Haemophilus influenzae [12]): 128 µg/mL; MIC90 (Haemophilus influenzae [12]): 128 µg/mL; MIC (Haemophilus influenzae [13]): 256 µg/mL (≈ 733 µM); Activity (Haemophilus influenzae [14]): 0%; MIC (Haemophilus influenzae [15]): 8 µg/mL (≈ 22.9 µM); Activity (Haemophilus influenzae [16]): 100%; Activity (Haemophilus influenzae [17]): 0%; Activity (Haemophilus influenzae [18]): 100%; MIC50 (Haemophilus influenzae [19]): 64 µg/mL (≈ 183 µM); MIC90 (Haemophilus influenzae [19]): > 128 µg/mL; Activity (Haemophilus influenzae [20]): 0%

Reference: ChEMBL document CHEMBL1137636, “Genetic characteristics and clonal dissemination of beta-lactamase-negative ampicillin-resistant Haemophilus influenzae strains isolated from the upper respiratory tract of patients in Japan” (2007)
